Results: patent US8110220B2, “Temperature sensitive polymers” (Universiteit Utrecht, priority 2005, dated 2012)

Assay: Degradation kinetics (hydrolysis) of oligolactate monomers, HPLC
Assay type: physicochemical
Conditions: pH 7.4, 37° C.
Protocol: The degradation kinetic studies of HEMAm-oligolactates were conducted as described by Neradovic et al [Macromolecules; 2003; 36(20); 7491-7498]. In brief, a 10 mM solution of HEMAm-oligolactate in DMSO was diluted 10 times with 100 mM PBS (pH 7.4) in a glass vial and the pH was adjusted to pH 7.4 with 4 M HCl. The resulting solutions of HEMAm-monolactate, -dilactate, -trilactate and—tetralactate were incubated in a shaking water bath at 37° C. At regular time intervals samples of 300 μl were withdrawn and 700 μl of 1 M sodium acetate buffer (pH 3.8) was added to prevent further hydrolysis. The samples were stored at 4° C. prior to HPLC analysis. The hydrolysis of HEMAm-trilactate and—tetralactate was also investigated in an acetonitril-PBS pH7.2 mixture (50:50 w/w) of lower dielectric constant to slow down the hydrolysis rate. The HPLC analysis was carried out on a Waters system (Waters Associates Inc., Milford, Mass., USA). This consisted of a pump Model 600, an autoinjector Model 717, a variable wavelength absorbance detector Model 996 and an analytical reversed phase column LiChrosphere 100 RP-18 (5 μm, 125×4 mm i.d.) with an RP-18 guard column (4×4 mm) (Merck) was used. The injection volume was 50 μl and the detection wavelength was 254 nm. […] The chromatograms were analyzed with Empower Software Version 1154 (Waters Associates Inc.). […]

Row | Structure (SMILES) | hydrolysis kinetics compared
1 | C=C(C)C(=O)NCCOC(=O)C(C)OC(=O)C(C)OC(=O)C(C)O (centres unmarked) [HEMAm-Lac3, HEMAm-trilactate] | even faster hydrolysis kinetics than HEMAm-Lac1-2
2 | C=C(C)C(=O)NCCOC(=O)C(C)OC(=O)C(C)OC(=O)C(C)OC(=O)C(C)O (centres unmarked) [HEMAm-Lac4, HEMAm-tetralactate] | even faster hydrolysis kinetics than HEMAm-Lac1-2
